According to patent publication US9943613B2 (priority 2012, dated 2018):

Assays:
[1] = tested on: RES-LTC chondrosarcoma cell line; assay: Quantitative picogreen assay for cell proliferation; assay type: cell-based; details: 10 mM, 48 hour timepoint, FIG. 4
Description: Quantitative picogreen for cell proliferation (μgDNA/ml).
(§1) Assay data analysis: Expressed as % of the positive controls for MTT and picogreen. MTT absorbance measures then normalized to the μgDNA/ml generated by the picogreen assay.
(§2) Cell cultures: RES-LTC chondrosarcoma cell line. Expresses hyaline-like chondrocyte phenotype and reliably produces large, homogeneous cell populations
(§3) Cell cultures in 96 well plates. Each compound, at a fixed concentration, was added in triplicate for each assay. MTT and picogreen assays in separate plates (assays interfere with each other). All plates treated together. Assays run at 48 hour timepoint. Microscopy performed to confirm findings.

rabbit stifle joints = assay: Single intra-articular injection toxicity model in rabbit stifles; assay type: in vivo, New Zealand White rabbits; details: for Synovial inflammation scoring: versus PBS-injected stifles, FIG. 7
Text: Rabbits were euthanized two weeks post-injection. Both left and right stifles were harvested and immediately fixed in 10% neutral buffered formalin, then set for histological processing. Five-micron thick slides from each knee were stained with Hematoxylin & Eosin and Safranin-O.

[2] = tested on: RES-LTC chondrosarcoma cell line; assay: Modified MTT assay for metabolic activity; assay type: cell-based; details: 48 hour timepoint; for MTT metabolic activity: FIG. 3
Description: Assays: Modified MTT assay for metabolic activity (absorbance).
as §1, §2, §3

[3] = tested on: glycosaminoglycans (GAG) in the cartilage; assay: T1 value map versus Safranin-O/fast green histology of cartilage-bone plug equilibrated in contrast agent (GAG targeting); details: human tibial plateau cartilage-bone plug equilibrated in contrast agent
Text: Cartilage-bone plug excised from a human tibial plateau that was retrieved from total knee replacement surgery was equilibrated in DAB-4 linked nitroxide citrate. T1 value map (as acquired for FIG. 1) is compared to histology in FIG. 2: • a) T1 value map: orange color is lower T1 value indicating more contrast agent and more glycosaminoglycans (GAG) in the cartilage. • b) Histology of the same specimen stained with Safranin-O/fast green.

human knee = details: 10 minutes after intraarticular injection of 25 ml of 5 mM solution in PBS, 3 Tesla, FIG. 9
Description: Coronal T1-weighted MR images of a human knee were taken in a human cadaver. Coronal T1-weighted MR contrast images were also taken ex vivo in a human cadaver 10 minutes after intraarticular injection of 25 ml of a 5 mM solution of DAB-4 citrate diluted in PBS. […] All images were performed on a Siemens Skyra 3 Tesla magnet using a 15 channel transmit/receive QED knee coil. (14 cm FOV (field of view); 3 mm thick slice; 384×384 matrix; TR 800 ms; TE 8.6 ms; Turbo factor of 2; receiver bandwidth 350 Hz/pixel.)

[4] = two weeks post-injection, histology

Compound: CNC[C@H](O)[C@@H](O)[C@H](O)[C@H](O)CO.CNC[C@H](O)[C@@H](O)[C@H](O)[C@H](O)CO.O=C([O-])CN(CCN(CC(=O)[O-])CC(=O)O)CCN(CC(=O)[O-])CC(=O)O.[Gd+3] [Magnevist]
- Picogreen cell proliferation [1]: low cell proliferation
- clinical signs of inflammation or lameness (rabbit stifle joints; single intra-articular injection, two weeks observation): No animals presented clinical signs of inflammation or lameness
- Modified Mankin scoring (structural damage / joint degeneration) (rabbit stifle joints; two weeks post-injection, histology, FIG. 6): did not uncover any signs of structural damage and/or degenerative response
- Synovial inflammation scoring (rabbit stifle joints; [4]): no difference between Magnevist or DAB-4 linked nitroxide and the PBS-injected stifles
- MTT data normalized to μgDNA/ml (health of the cells) ([2]; 10 mM, FIG. 5): abnormally high

Compound: Citric Acid Salt of DAB-4 Linked Nitroxide [DAB-4 linked nitroxide citrate]
- agreement of T1 value map with histology stain for GAG concentration [3]: high GAG concentration in the same areas indicated by DAB-4 linked nitroxide on the T1 value map and the stain on the histology map
- T1-weighted MR contrast of joint fluid and cartilage surfaces (human knee): the joint fluid (asterisk) is now bright and outlines the cartilage surfaces
- detection of cartilage defect on T1-weighted MR image (human knee): A partial thickness cartilage defect (arrow) is easily identified

Compound: DAB-dendrimer-(NH-3-CO-PROXYL)4 [DAB-4 linked nitroxide]
- agreement of T1 value map with histology stain for GAG concentration [3]: high GAG concentration in the same areas as indicated by DAB-4 linked nitroxide on the T1 value map and the stain on the histology map
- Synovial inflammation scoring (rabbit stifle joints; [4]): no difference between Magnevist or DAB-4 linked nitroxide and the PBS-injected stifles
- MTT metabolic activity ([2]; 1-10 mM): less metabolic activity than positive controls but greater than for DAB-8 linked nitroxide

Compound: DAB-dendrimer-(NH-3-CO-PROXYL)8 [DAB-8 linked nitroxide]
- MTT metabolic activity ([2]; concentrations above 1 mM): less metabolic activity than positive controls (untreated), or DAB-4 linked nitroxide and Magnevist
